Assay results reported in patent publication US11433012B2, “Peptides for increasing melanin in melanocytes” (Conopco, Inc., priority 2017, dated 2022).
Peptide text beside a SMILES is read from it.

Columns and labels:
[1] = system: Neonatal foreskin primary human epidermal melanocytes; assay: Cell viability by the calcein method; format: cell-based
Protocol: (§1) All test compounds were purchased from SIGMA-ALDRICH as stocks of 10 mM in 100% DMSO. They were tested at various concentrations in cell culture (see below). Forskolin (SIGMA Cat. #F6886) and IBMX (SIGMA Cat. #I5879) were used as reference comparators, as they have been reported to increase melanin content. Neonatal foreskin primary human epidermal melanocytes were procured from Cascade Biologicals (labelled passage P0). Melanocytes were maintained in Medium 254CF (Cascade Cat. #M-254CF-500) supplemented with human melanocyte growth supplement (Cascade; Cat. #S-002-5), hereafter referred to as MGM. Cells were maintained at 37° C. in a humidified incubator with 5% CO2 atmosphere.
(§2) 50,000 cells were seeded in 24 well plate in MGM; after 24 hours, cultures were treated with various concentrations of the test materials and left undisturbed for a further period of 72 hours. Comparative vehicle controls of 0.25% (v/v) DMSO were also set up in parallel, simultaneously. At the end of the incubation period, cell viability was determined using the calcein method.
Briefly, cell culture spent media was removed and cells washed once with 0.4 ml of 1×PBS—Ca—Mg solution. Fresh 1 μM calcein-AM was added (0.2 ml/well), including to control wells without cells. Plates were covered with aluminium foil and incubated for 30 minutes. at 37° C. in the regular CO2 incubator. Calcein fluorescence was then measured (λmax 490 nm and λmax 520 nm) in TECAN® M1000 Infinite series plate reader.
(§3) Calcein fluorescence values were ratio converted in 0 to 100 scale (% viability), with 100 representing the value of the 0.25% DMSO sample. % Melanin content was calculated as the ratio between OD405nm value of any sample to that of DMSO reference sample. Normalized melanin content value was then calculated as 100*(% Melanin Content)/(% Cellular viability).

[2] = system: Neonatal foreskin primary human epidermal melanocytes; assay: Melanin content assay (OD405 nm of cell lysate); format: cell-based; details: for % Melanin / OD405 nm / % Increase in Melanin / Normalized melanin content / Normalized melanin content at 0.25 µM: 72 hours; for Normalized melanin content at 0.25 µM: Homo sapiens, Melanocyte, read-out: Normalized melanin content, 100*(% Melanin Content)/(% Cellular viability); for Increase in melanin content of melanocytes (in words): data of Table 2
Protocol: as §1, §2
After calcein fluorescence readings were obtained, cells were drained and added fresh 125 μl of 1N NaOH (in 10% DMSO) per well. Cells were lysed by resuspension and incubation (60° C./1 hour). Then this lysate was transferred to a fresh […] and measured OD405 nm in a TECAN M1000 plate reader (estimate of relative melanin content).
as §3
The percentage Increase in melanin content was estimated as [(Normalized melanin content)−100]

Tyrosinase = target: T1, Tyrosinase (Homo sapiens, UniProt P14679); assay: Tyrosinase assay; format: biochemical; details: 0.25 μM
T1 sequence (P14679 19-529): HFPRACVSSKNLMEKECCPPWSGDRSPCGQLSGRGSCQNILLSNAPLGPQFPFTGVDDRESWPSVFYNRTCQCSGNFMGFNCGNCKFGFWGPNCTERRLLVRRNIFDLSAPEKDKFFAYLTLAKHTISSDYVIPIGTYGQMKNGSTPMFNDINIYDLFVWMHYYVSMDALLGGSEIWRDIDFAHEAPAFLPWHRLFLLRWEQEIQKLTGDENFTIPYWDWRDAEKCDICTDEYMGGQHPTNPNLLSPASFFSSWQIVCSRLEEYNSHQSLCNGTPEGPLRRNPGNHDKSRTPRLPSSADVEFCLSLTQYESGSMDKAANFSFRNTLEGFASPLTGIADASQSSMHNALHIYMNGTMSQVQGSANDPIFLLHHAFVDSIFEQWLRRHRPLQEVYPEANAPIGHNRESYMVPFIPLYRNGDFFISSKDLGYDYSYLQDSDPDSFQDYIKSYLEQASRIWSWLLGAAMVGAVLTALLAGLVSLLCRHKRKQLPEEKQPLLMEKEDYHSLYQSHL

[3] = 0.25 μM, relative to DMSO control
[4] = 0.25 μM, normalized melanin content minus 100

## O=C(N[C@@H](CO)C(=O)N[C@@H](Cc1ccc(O)cc1)C(=O)OCc1ccccc1)OCc1ccccc1 [Compound 1, Benzyl (2S)-2-[((2S)-2-{[(benzyloxy)carbonyl]amino}-3-hydroxypropanoyl)amino]-3-(4-hydroxyphenyl)propanoate.] (HELM PEPTIDE1{[O=C(OCc1ccccc1)[*:2]].S.Y.[c1ccc(CO[*:1])cc1]}$$$$V2.0)
[1]; human, 72 h, 0.25 μM
  % Viability: 107%
[1]; human, 72 h, 3.125 μM
  % Viability: 91.0%
[1]; human, 72 h, 6.25 μM
  % Viability: 95.5%
[1]; human, 72 h, 12.5 μM
  % Viability: 88.7%
[1]; human, 72 h, 25 μM
  % Viability: 90.0%
[2]; [3]
  % Melanin: 135.4%
[2]; 0.25 μM, control 0.113
  OD405 nm: 0.153
[2]; [4]
  % Increase in Melanin: 26.5%
[2]; 3.125 μM
  % Increase in Melanin: 17.9%
  % Melanin: 107.3%
  Normalized melanin content: 117.9
[2]; 3.125 μM, control 0.165
  OD405 nm: 0.177
[2]; 6.25 μM
  % Increase in Melanin: 20.6%
  % Melanin: 115.2%
  Normalized melanin content: 120.6
[2]; 6.25 μM, control 0.165
  OD405 nm: 0.190
[2]; 12.5 μM
  % Increase in Melanin: 33.3%
  % Melanin: 118.2%
  Normalized melanin content: 133.3
[2]; 12.5 μM, control 0.165
  OD405 nm: 0.195
[2]; 25 μM
  % Increase in Melanin: 34.0%
  % Melanin: 120.6%
  Normalized melanin content: 134.0
[2]; 25 μM, control 0.165
  OD405 nm: 0.199
[2]; 0.25 μM
  Normalized melanin content at 0.25 µM: 126%
Tyrosinase
  % increase in Tyrosinase activity: 3.5%

## CC(C)[C@H](NC(=O)OCc1ccccc1)C(=O)N[C@@H](Cc1ccc(O)cc1)C(N)=O [Compound 2, Benzyl (1S)-1-({[(1S)-2-amino-1-(4-hydroxybenzyl)-2-oxoethyl]amino}carbonyl)-2-methylpropylcarbamate] (HELM PEPTIDE1{[O=C(OCc1ccccc1)[*:2]].V.Y.[am]}$$$$V2.0)
[1]; human, 72 h, 0.25 μM
  % Viability: 81%
[1]; human, 72 h, 1.5 μM
  % Viability: 91.3%
[1]; human, 72 h, 3.125 μM
  % Viability: 90.5%
[1]; human, 72 h, 6.25 μM
  % Viability: 99.8%
[1]; human, 72 h, 12.5 μM
  % Viability: 95.8%
[1]; human, 72 h, 25 μM
  % Viability: 92.5%
[1]; human, 72 h, 50 μM
  % Viability: 100.6%
[2]; [3]
  % Melanin: 110.6%
[2]; 0.25 μM, control 0.113
  OD405 nm: 0.125
[2]; [4]
  % Increase in Melanin: 36.5%
[2]; 1.5 μM
  % Increase in Melanin: 16.9%
  % Melanin: 106.7%
  Normalized melanin content: 116.9
[2]; 1.5 μM, control 0.165
  OD405 nm: 0.176
[2]; 3.125 μM
  % Increase in Melanin: 23.2%
  % Melanin: 111.5%
  Normalized melanin content: 123.2
[2]; 3.125 μM, control 0.165
  OD405 nm: 0.184
[2]; 6.25 μM
  % Increase in Melanin: 14.7%
  % Melanin: 114.5%
  Normalized melanin content: 114.7
[2]; 6.25 μM, control 0.165
  OD405 nm: 0.189
[2]; 12.5 μM
  % Increase in Melanin: 26.5%
  % Melanin: 121.2%
  Normalized melanin content: 126.5
[2]; 12.5 μM, control 0.165
  OD405 nm: 0.200
[2]; 25 μM
  % Increase in Melanin: 42.2%
  % Melanin: 131.5%
  Normalized melanin content: 142.2
[2]; 25 μM, control 0.165
  OD405 nm: 0.217
[2]; 50 μM
  % Increase in Melanin: 25.8%
  % Melanin: 126.6%
  Normalized melanin content: 125.8
[2]; 50 μM, control 0.165
  OD405 nm: 0.209
[2]; 0.25 μM
  Normalized melanin content at 0.25 µM: 136%
[2]
  Increase in melanin content of melanocytes (in words): substantial increase in melanin content
[2]; data of Table 3
  Extent of increase in melanin content versus reference molecules (in words): comparable to known standard reference molecules (Forskolin and IBMX)
Tyrosinase
  % increase in Tyrosinase activity: 2.0%

## CSCC[C@H](NC(=O)OCc1ccccc1)C(=O)N[C@@H](Cc1c[nH]c2ccccc12)C(=O)O [Compound 3, (2S)-2-{[(2S)-2-{[(benzyloxy)carbonyl]amino}-4-(methylthio)butanoyl]amino}-3-(1H-indol-3-yl)propanoic acid] (HELM PEPTIDE1{[O=C(OCc1ccccc1)[*:2]].M.W}$$$$V2.0)
[1]; human, 72 h, 0.25 μM
  % Viability: 99%
[2]; [3]
  % Melanin: 106.2%
[2]; 0.25 μM, control 0.113
  OD405 nm: 0.120
[2]; [4]
  % Increase in Melanin: 7.3%
[2]; 0.25 μM
  Normalized melanin content at 0.25 µM: 107%
[2]
  Increase in melanin content of melanocytes (in words): not
Tyrosinase
  % increase in Tyrosinase activity: 1.8%

## C[C@@H](O)[C@H](NC(=O)OCc1ccccc1)C(=O)N[C@@H](Cc1ccc(O)cc1)C(N)=O [Compound 4, Benzyl (1S,2R)-1-({[(1S)-2-amino-1-(4-hydroxybenzyl)-2-oxoethyl]amino}carbonyl)-2-hydroxypropylcarbamate.] (HELM PEPTIDE1{[O=C(OCc1ccccc1)[*:2]].T.Y.[am]}$$$$V2.0)
[1]; human, 72 h, 0.25 μM
  % Viability: 110%
[2]; [3]
  % Melanin: 102.7%
[2]; 0.25 μM, control 0.113
  OD405 nm: 0.116
[2]; [4]
  % Increase in Melanin: −6.6%
[2]; 0.25 μM
  Normalized melanin content at 0.25 µM: 93.4%
Tyrosinase
  % increase in Tyrosinase activity: 0.8%

## C=C[C@@]1(C)CC(=O)[C@]2(O)[C@@]3(C)[C@@H](O)CCC(C)(C)[C@@H]3[C@H](O)[C@H](OC(C)=O)[C@@]2(C)O1 [Forskolin, reference compound]
[1]; 2.5 μM, 72 hours
  % Viability: 95.6%
[1]; 5 μM, 72 hours
  % Viability: 94.8%
[1]; 10 μM, 72 hours
  % Viability: 90.5%
[2]; 2.5 μM
  % Increase in Melanin: 16.6%
  % Melanin: 111.5%
  Normalized melanin content: 116.6
[2]; 2.5 μM, control 0.165
  OD405 nm: 0.184
[2]; 5 μM
  % Increase in Melanin: 29.2%
  % Melanin: 122.5%
  Normalized melanin content: 129.2
[2]; 5 μM, control 0.165
  OD405 nm: 0.202
[2]; 10 μM
  % Increase in Melanin: 36.7%
  % Melanin: 123.7%
  Normalized melanin content: 136.7
[2]; 10 μM, control 0.165
  OD405 nm: 0.204

## CC(C)Cn1c(=O)n(C)c(=O)c2[nH]cnc21 [IBMX, 3-isobutyl-1-methylxanthine, reference compound]
[1]; human, 72 h, 12.5 μM
  % Viability: 100.1%
[1]; human, 72 h, 25 μM
  % Viability: 95.2%
[1]; human, 72 h, 50 μM
  % Viability: 91.0%
[2]; 12.5 μM
  % Increase in Melanin: 16.6%
  % Melanin: 116.7%
  Normalized melanin content: 116.6
[2]; 12.5 μM, control 0.165
  OD405 nm: 0.193
[2]; 25 μM
  % Increase in Melanin: 24.8%
  % Melanin: 118.8%
  Normalized melanin content: 124.8
[2]; 25 μM, control 0.165
  OD405 nm: 0.196
[2]; 50 μM
  % Increase in Melanin: 28.2%
  % Melanin: 116.7%
  Normalized melanin content: 128.2
[2]; 50 μM, control 0.165
  OD405 nm: 0.193
